Where “and” joins values, the source holds several entries; their conditions need not be identical. Identical values can stand only once. Toxic doses and inconclusive results are not listed. Rule as the data show it: active = T/C of 150% or more; inactive = T/C below 125%.
Tested on: L1210 leukemia ip in BDF1 mice, survival T/C
Experiment: NCI In Vivo Anticancer Drug Screen. Data for tumor model L1210 Leukemia (intraperitoneal) in B6D2F1 (BDF1) mice
Settings: endpoint: mean survival time, higher = longer survival
Summary of the method: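 Transplantable tumor model; survival measured in treated vs vehicle control mice. Value = treated/control.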

[1] = dose: 75.0 mg/kg/injection, schedule: Q01DX001 (ip), vehicle: saline
[2] = dose: 150.0 mg/kg/injection, schedule: Q01DX001 (ip), vehicle: saline
[3] = dose: 100.0 mg/kg/injection, schedule: Q04DX002 (ip), vehicle: Klucel (hydroxypropylcellulose) (HPC)
[4] = dose: 200.0 mg/kg/injection, schedule: Q04DX002 (ip), vehicle: Klucel (hydroxypropylcellulose) (HPC)
[5] = dose: 400.0 mg/kg/injection, schedule: Q04DX002 (ip), vehicle: Klucel (hydroxypropylcellulose) (HPC)
[6] = dose: 300.0 mg/kg/injection, schedule: Q01DX001 (ip), vehicle: saline
[7] = dose: 100.0 mg/kg/injection, schedule: Q01DX009 (ip), vehicle: Klucel (hydroxypropylcellulose) (HPC)
[8] = dose: 200.0 mg/kg/injection, schedule: Q01DX009 (ip), vehicle: Klucel (hydroxypropylcellulose) (HPC)
[9] = dose: 400.0 mg/kg/injection, schedule: Q01DX009 (ip), vehicle: Klucel (hydroxypropylcellulose) (HPC)
[10] = dose: 100.0 mg/kg/injection, schedule: Q01DX009 (ip), vehicle: saline with Tween-80
[11] = dose: 200.0 mg/kg/injection, schedule: Q01DX009 (ip), vehicle: saline with Tween-80
[12] = dose: 400.0 mg/kg/injection, schedule: Q01DX009 (ip), vehicle: saline with Tween-80
[13] = dose: 100.0 mg/kg/injection, schedule: Q01DX001 (ip), vehicle: saline
[14] = dose: 200.0 mg/kg/injection, schedule: Q01DX001 (ip), vehicle: saline
[15] = dose: 400.0 mg/kg/injection, schedule: Q01DX001 (ip), vehicle: saline
[16] = dose: 100.0 mg/kg/injection, schedule: Q04DX003 (ip), vehicle: saline with Tween-80

Measured: T/C

CCOC(=O)C(=N\Nc1ccc(C)c(C)c1)/C(C)=N\NC(N)=S
inactive: [1] 87 % of control | [2] 89 % of control

O=S(=O)(O)Cc1ccc(Cl)cc1Cl
inactive: dose: 100.0 mg/kg/injection, schedule: Q04DX002 (ip), vehicle: saline 95 % of control | dose: 200.0 mg/kg/injection, schedule: Q04DX002 (ip), vehicle: saline 103 % of control | dose: 400.0 mg/kg/injection, schedule: Q04DX002 (ip), vehicle: saline 116 % of control

O=C(CSSCC(=O)Nc1ccccc1O)Nc1ccccc1O
inactive: dose: 100.0 mg/kg/injection, schedule: Q01DX001 (ip), vehicle: other 88 % of control | dose: 200.0 mg/kg/injection, schedule: Q01DX001 (ip), vehicle: other 93 % of control | dose: 400.0 mg/kg/injection, schedule: Q01DX001 (ip), vehicle: other 89 % of control

Nc1nc(NCCO)c(NC=O)c(=O)[nH]1
inactive: dose: 100.0 mg/kg/injection, schedule: Q01DX Z (ip), vehicle: methylcellulose (MC) 103 % of control | dose: 128.0 mg/kg/injection, schedule: Q01DX Z (ip), vehicle: methylcellulose (MC) 95 % of control | dose: 222.0 mg/kg/injection, schedule: Q01DX Z (ip), vehicle: methylcellulose (MC) 94 % of control | dose: 333.0 mg/kg/injection, schedule: Q01DX Z (ip), vehicle: methylcellulose (MC) 97 % of control

CC1(C)CC(=O)C2=C(C1)Nc1ccccc1NC2c1ccccc1 (stereo not given)
inactive: dose: 50.0 mg/kg/injection, schedule: Q04DX002 (ip), vehicle: Klucel (hydroxypropylcellulose) (HPC) 92 % of control | [3] 110 % of control and 113 % of control | [4] 92 % of control | [5] 98 % of control

O=C1c2[nH]c3ccccc3c2CC2CC12 (stereo not given)
inactive: [1] 96 % of control | [2] 104 % of control | [6] 101 % of control

N#CS/C=C/C(N)=O
inactive: dose: 1.0 mg/kg/injection, schedule: Q01DX001 (ip), vehicle: saline 101 % of control | dose: 2.0 mg/kg/injection, schedule: Q01DX001 (ip), vehicle: saline 99 % of control | dose: 2.0 mg/kg/injection, schedule: Q01DX009 (ip), vehicle: saline 103 % of control | dose: 4.0 mg/kg/injection, schedule: Q01DX001 (ip), vehicle: saline 95 % of control | dose: 4.0 mg/kg/injection, schedule: Q01DX009 (ip), vehicle: saline 103 % of control | dose: 8.0 mg/kg/injection, schedule: Q01DX001 (ip), vehicle: saline 94 % of control | dose: 8.0 mg/kg/injection, schedule: Q01DX009 (ip), vehicle: saline 105 % of control

CC(=O)n1cc(/C=C2\N=C(c3ccccc3)OC2=O)c2ccccc21
inactive: [7] 94 % of control | [8] 96 % of control | [9] 94 % of control

C/C(CCc1c[nH]c2ccccc12)=N\O
inactive: dose: 100.0 mg/kg/injection, schedule: Q04DX003 (sc), vehicle: olive oil, sesame oil, peanut oil 98 % of control | dose: 200.0 mg/kg/injection, schedule: Q04DX003 (sc), vehicle: olive oil, sesame oil, peanut oil 98 % of control | dose: 400.0 mg/kg/injection, schedule: Q04DX003 (sc), vehicle: olive oil, sesame oil, peanut oil 104 % of control

O=C1CC(N2CCCCC2)C(=O)N1c1ccccc1 (stereo not given)
inactive: dose: 100.0 mg/kg/injection, schedule: Q04DX002 (ip), vehicle: saline with Tween-80 92 % of control | dose: 200.0 mg/kg/injection, schedule: Q04DX002 (ip), vehicle: saline with Tween-80 95 % of control

N#CCCP(=O)(CCC#N)CCCCCCP(=O)(CCC#N)CCC#N
inactive: [10] 90 % of control | [11] 90 % of control | [12] 89 % of control

C/C(=C\c1ccc2ccccc2c1)[N+](=O)[O-]
inactive: [1] 108 % of control | [2] 100 % of control | [6] 105 % of control

Nc1[nH]c(=O)[nH]c(=O)c1N=Nc1ccc(S(=O)(=O)Nc2ccccn2)cc1
inactive: [13] 98 % of control | [14] 96 % of control | [15] 104 % of control

CCN(CC)CCOc1ccc(-c2ccccc2)cc1
active: [16] 277 % of control
inactive: dose: 50.0 mg/kg/injection, schedule: Q04DX003 (ip), vehicle: saline with Tween-80 98 % of control

O=C(O)c1cccc2c1C(Br)C(Br)c1ccccc1-2 (stereo not given)
inactive: dose: 100.0 mg/kg/injection, schedule: Q04DX003 (ip), vehicle: saline 94 % of control | dose: 200.0 mg/kg/injection, schedule: Q04DX003 (ip), vehicle: saline 94 % of control | dose: 400.0 mg/kg/injection, schedule: Q04DX003 (ip), vehicle: saline 92 % of control

NC(=O)N1CCCC1
inactive: [13] 98 % of control | [14] 95 % of control | [15] 95 % of control

CCOC(=O)C1C(=O)CC(=O)C(C(=O)OCC)C1c1ccc(O)cc1 (stereo not given)
inactive: [7] 95 % of control | dose: 100.0 mg/kg/injection, schedule: Q04DX003 (ip), vehicle: Klucel (hydroxypropylcellulose) (HPC) 97 % of control | [8] 98 % of control | dose: 200.0 mg/kg/injection, schedule: Q04DX003 (ip), vehicle: Klucel (hydroxypropylcellulose) (HPC) 104 % of control | [9] 97 % of control | dose: 400.0 mg/kg/injection, schedule: Q04DX003 (ip), vehicle: Klucel (hydroxypropylcellulose) (HPC) 107 % of control

O=C1c2ccccc2C(=Cc2ccccc2)c2ccccc21
inactive: [10] 107 % of control | [16] 101 % of control | [11] 107 % of control | dose: 200.0 mg/kg/injection, schedule: Q04DX003 (ip), vehicle: saline with Tween-80 100 % of control | [12] 104 % of control | dose: 400.0 mg/kg/injection, schedule: Q04DX003 (ip), vehicle: saline with Tween-80 92 % of control

O=C(O)c1ccc2ccccc2n1.[Cu+2]
inactive: [13] 93 % of control

NC1(CSS(=O)(=O)O)CCN1 (stereo not given)
inactive: dose: 10.0 mg/kg/injection, schedule: Q04DX002 (ip), vehicle: saline 106 % of control | dose: 20.0 mg/kg/injection, schedule: Q04DX002 (ip), vehicle: saline 98 % of control | dose: 40.0 mg/kg/injection, schedule: Q04DX002 (ip), vehicle: saline 109 % of control

CCOC(=O)c1ccc(NCc2nnc3nc(N)nc(SCc4ccccc4)c3n2)cc1
inactive: dose: 100.0 mg/kg/injection, schedule: Q01DX001 (ip), vehicle: saline with Tween-80 96 % of control | dose: 200.0 mg/kg/injection, schedule: Q01DX001 (ip), vehicle: saline with Tween-80 98 % of control | dose: 400.0 mg/kg/injection, schedule: Q01DX001 (ip), vehicle: saline with Tween-80 92 % of control

Cc1ccccc1Nc1nc(N)nc2nc(N)c(C(N)=O)nc12
inactive: [3] 97 % of control | [4] 92 % of control | [5] 92 % of control

CC(=O)OC1CCC2C3CCC4=CC(=O)C(C(O)(C(F)(F)F)C(F)(F)F)CC4(C)C3CCC12C (stereo not given)
inactive: dose: 100.0 mg/kg/injection, schedule: Q01DX001 (sc), vehicle: steriod suspending solution 106 % of control | dose: 200.0 mg/kg/injection, schedule: Q01DX001 (sc), vehicle: steriod suspending solution 101 % of control | dose: 400.0 mg/kg/injection, schedule: Q01DX001 (sc), vehicle: steriod suspending solution 101 % of control

Cc1cc(CC(=O)c2ccccc2)[nH]c(=O)c1
inactive: [13] 103 % of control | [14] 101 % of control | [15] 101 % of control

O=C(O)C(Cc1ccc(O)cc1)NC(=O)N(c1ccccc1)c1ccccc1 (stereo not given)
inactive: [13] 95 % of control | [14] 103 % of control | [15] 106 % of control

Cc1cc(C)c(C(O)C(=O)O)c(C)c1 (stereo not given)
inactive: [1] 108 % of control | [2] 97 % of control | [6] 101 % of control

CN(C)C(=O)Nc1cccc(OC(=O)NC(C)(C)C)c1
inactive: [10] 93 % of control | [11] 87 % of control | [12] 94 % of control

CCCCCCCCCCCCCC[Si](Cl)(Cl)Cl
inactive: [1] 94 % of control | [2] 92 % of control

Source: PubChem BioAssay AID248 (DTP/NCI, 2004)
